The source of these data is patent US7932276B2, “Agent for curing chronic obstructive pulmonary disease” (Otsuka Pharmaceutical Co., Ltd., priority 2001, dated 2011).

Molecules are shown by their SMILES.

For the experiment, the system named is guinea pigs exposed to smoke of cigarette. The experiment can be described thus: Cigarette smoke exposure guinea pig COPD model, respiratory functions by Double-chamber Plethymograph method. Type of experiment: in vivo, Hartley strain guinea pigs. To be noted: 10 mg/kg orally once a day; for Changes in Peak expiration flow / Changes in Specific airway resistance value: change vs value before exposure to cigarette smoke. Here is the method:
In accordance with the method of Jun-ichi Fuchikami, et al. (Japanese Journal of Pharmacology, 2000, (82), p. 247), the following pharmacological test was conducted.
Hartley strain guinea pigs (5 weeks age, body weight: 300 to 379.5 g) were exposed to smoke of cigarette (trade name: Hi-Light, manufactured by Japan Tobacco Inc.) for 1 hour/day, 5 days a week, during 4 weeks, by using a flow-past type nose-only inhalation chamber, manufactured by Muenster Co. Control group as a normal group was exposed to the atmospheric air instead of cigarette smoke.
Compound A was suspended in 0.5% tragacanth gum aqueous solution, and this suspension was orally administered compulsorily to the guinea pigs (compound A administered group), in the amount of 10 mg/kg once a day, 1 hour before the exposure to cigarette smoke in the day of exposure, and in the morning in the day of non-exposure, respectively.
To the guinea pigs in the vehicle administered group, a 0.5% tragacanth gum aqueous solution without containing Compound A was orally administered instead of the suspension of compound A.
While, to the guinea pigs in the control group, neither the 0.5% tragacanth aqueous solution nor the compound A suspension were administered.
Before exposure and during the period of 4 weeks of exposure to the smoke of cigarette, the respiratory functions (specific airway resistance and peak expiration flow) of the guinea pigs were non-invasively assessed once a week under conscious condition, using Double-chamber Plethymograph method with a respiratory function measuring equipment (Pulmos-I, manufactured by M.I.P.S. Co.).
The respiratory functions (i.e., values of specific airway resistance and peak expiration flow) were obtained as an average of 100 times measured values of the functions, and were shown as the changes of percentage to the respective value of respiratory function measured before exposure to cigarette smoke.

Regarding `CCOc1ccc(-c2nc(-c3cccc(C(=O)O)n3)cs2)cc1OCC` [Compound A, 6-[2-(3,4-diethoxyphenyl)thiazol-4-yl]pyridine-2-carboxylic acid], under “4 weeks cigarette smoke exposure”, the “Effect on specific airway resistance and peak expiration flow as compared with vehicle administered group” value is listed as “excellent improving effects”. Further, the “Changes in Peak expiration flow” value is, setting by setting: (1 Week after exposure) 9.67%; (2 Week after exposure) 15.67%; (3 Week after exposure) 14.08%; (4 Week after exposure) 37.06%. Also, the “Changes in Specific airway resistance value” by setting is: (1 Week after exposure) 12.75%; (2 Week after exposure) 41.82%; (3 Week after exposure) 61.08%; (4 Week after exposure) 51.26%.
